Assay results taken from ChEMBL document CHEMBL1201862, “PubChem BioAssay data set” (2004).
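Values below derive from 48-hour exposures of cells grown in 96-well plates, with endpoints linearly interpolated between the two concentrations bracketing the appropriate inhibition level. At the GI50, growth is halved.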 Calls of active or inactive are those of the source. Rule as the data show it: active = GI50 up to about 1.1 µM and inactive = higher.

Legend:
Test in all cases: DTP human tumour cell line panel, 48 h
SF-295 = tested on: SF-295
SK-MEL-5 = tested on: SK-MEL-5
SK-OV-3 = tested on: SK-OV-3
A498 = tested on: A498
OVCAR-3 = tested on: OVCAR-3
HT-29 = tested on: HT-29
RXF 393 = tested on: RXF 393
OVCAR-4 = tested on: OVCAR-4
UO-31 = tested on: UO-31
NCI/ADR-RES = tested on: NCI/ADR-RES
U-251 = tested on: U-251
MCF7 = tested on: MCF7
UACC-62 = tested on: UACC-62
DU-145 = tested on: DU-145
HL-60 = tested on: HL-60
MOLT-4 = tested on: MOLT-4
SK-MEL-28 = tested on: SK-MEL-28
M14 = tested on: M14
K562 = tested on: K562
COLO 205 = tested on: COLO 205
NCI-H460 = tested on: NCI-H460
HCT-116 = tested on: HCT-116
MDA-MB-231 = tested on: MDA-MB-231
PC-3 = tested on: PC-3
SN12C = tested on: SN12C
OVCAR-5 = tested on: OVCAR-5
KM12 = tested on: KM12
Hs-578T = tested on: Hs-578T
NCI-H522 = tested on: NCI-H522
LOX IMVI = tested on: LOX IMVI
SW-620 = tested on: SW-620
HCT-15 = tested on: HCT-15
SNB-75 = tested on: SNB-75
BT-549 = tested on: BT-549
Malme-3M = tested on: Malme-3M
A549 = tested on: A549
UACC-257 = tested on: UACC-257
786-0 = tested on: 786-0
CAKI-1 = tested on: CAKI-1
NCI-H226 = tested on: NCI-H226
ACHN = tested on: ACHN
SNB-19 = tested on: SNB-19
T47D = tested on: T47D
HOP-92 = tested on: HOP-92
CCRF-CEM = tested on: CCRF-CEM
MDA-MB-435 = tested on: MDA-MB-435
OVCAR-8 = tested on: OVCAR-8
RPMI-8226 = tested on: RPMI-8226
MDA-N = tested on: MDA-N
TK-10 = tested on: TK-10
HCC 2998 = tested on: HCC 2998
SK-MEL-2 = tested on: SK-MEL-2
SF-268 = tested on: SF-268
EKVX = tested on: EKVX
IGROV-1 = tested on: IGROV-1
NCI-H23 = tested on: NCI-H23
HOP-62 = tested on: HOP-62
SF-539 = tested on: SF-539
SR = tested on: SR

## O=S(=O)(N1CCCCN(S(=O)(=O)C(F)(F)F)CCCN(S(=O)(=O)C(F)(F)F)CCCCN(S(=O)(=O)C(F)(F)F)CCCN(S(=O)(=O)C(F)(F)F)CCCCN(S(=O)(=O)C(F)(F)F)CCCN(S(=O)(=O)C(F)(F)F)CCCCN(S(=O)(=O)C(F)(F)F)CCC1)C(F)(F)F
SF-295
  GI50: > 31.6 µM (inactive)
SK-MEL-5
  GI50: > 31.6 µM (inactive)
SK-OV-3
  GI50: > 31.6 µM (inactive)
A498
  GI50: > 31.6 µM (inactive)
OVCAR-3
  GI50: > 31.6 µM (inactive)
HT-29
  GI50: > 31.6 µM (inactive)
RXF 393
  GI50: > 31.6 µM (inactive)
OVCAR-4
  GI50: > 100 µM (inactive)
UO-31
  GI50: > 31.6 µM (inactive)
NCI/ADR-RES
  GI50: > 31.6 µM (inactive)
U-251
  GI50: > 100 µM (inactive)
MCF7
  GI50: > 10 µM (inactive)
UACC-62
  GI50: > 31.6 µM (inactive)
DU-145
  GI50: > 31.6 µM (inactive)
HL-60
  GI50: > 31.6 µM (inactive)
MOLT-4
  GI50: > 31.6 µM (inactive)
SK-MEL-28
  GI50: > 31.6 µM (inactive)
M14
  GI50: > 31.6 µM (inactive)
K562
  GI50: > 31.6 µM (inactive)
COLO 205
  GI50: > 100 µM (inactive)
NCI-H460
  GI50: > 31.6 µM (inactive)
HCT-116
  GI50: > 31.6 µM (inactive)
MDA-MB-231
  GI50: > 31.6 µM (inactive)
PC-3
  GI50: > 31.6 µM (inactive)
SN12C
  GI50: > 31.6 µM (inactive)
OVCAR-5
  GI50: > 100 µM (inactive)
KM12
  GI50: > 31.6 µM (inactive)
Hs-578T
  GI50: > 31.6 µM (inactive)
NCI-H522
  GI50: > 31.6 µM (inactive)
LOX IMVI
  GI50: > 31.6 µM (inactive)
SW-620
  GI50: > 31.6 µM (inactive)
HCT-15
  GI50: > 31.6 µM
SNB-75
  GI50: > 31.6 µM (inactive)
BT-549
  GI50: > 31.6 µM (inactive)
Malme-3M
  GI50: > 31.6 µM (inactive)
A549
  GI50: > 31.6 µM (inactive)
UACC-257
  GI50: > 31.6 µM (inactive)
786-0
  GI50: > 100 µM (inactive)
CAKI-1
  GI50: > 31.6 µM (inactive)
NCI-H226
  GI50: > 31.6 µM (inactive)
ACHN
  GI50: > 31.6 µM (inactive)
SNB-19
  GI50: > 31.6 µM (inactive)
T47D
  GI50: > 31.6 µM (inactive)
HOP-92
  GI50: 11.1 µM (inactive)
CCRF-CEM
  GI50: > 31.6 µM (inactive)
MDA-MB-435
  GI50: > 31.6 µM (inactive)
OVCAR-8
  GI50: > 31.6 µM (inactive)
RPMI-8226
  GI50: 78.7 µM (inactive)
MDA-N
  GI50: > 31.6 µM (inactive)
TK-10
  GI50: > 31.6 µM (inactive)
HCC 2998
  GI50: > 31.6 µM (inactive)
SK-MEL-2
  GI50: > 100 µM (inactive)
SF-268
  GI50: > 31.6 µM (inactive)
EKVX
  GI50: > 31.6 µM (inactive)
IGROV-1
  GI50: > 31.6 µM (inactive)
NCI-H23
  GI50: > 31.6 µM (inactive)
HOP-62
  GI50: > 31.6 µM (inactive)
SF-539
  GI50: > 31.6 µM (inactive)

## CCOC(=O)C1CN(C2CC2)CCC1=O (stereo not given)
SF-295
  GI50: > 100 µM (inactive)
SK-MEL-5
  GI50: > 100 µM (inactive)
SK-OV-3
  GI50: > 100 µM (inactive)
OVCAR-3
  GI50: > 100 µM (inactive)
HT-29
  GI50: > 100 µM (inactive)
RXF 393
  GI50: > 100 µM (inactive)
OVCAR-4
  GI50: > 100 µM (inactive)
UO-31
  GI50: > 100 µM (inactive)
NCI/ADR-RES
  GI50: > 100 µM (inactive)
U-251
  GI50: > 100 µM (inactive)
MCF7
  GI50: > 100 µM (inactive)
UACC-62
  GI50: > 100 µM (inactive)
DU-145
  GI50: > 100 µM (inactive)
HL-60
  GI50: > 100 µM (inactive)
SR
  GI50: > 100 µM (inactive)
MOLT-4
  GI50: > 100 µM (inactive)
SK-MEL-28
  GI50: > 100 µM (inactive)
M14
  GI50: > 100 µM (inactive)
K562
  GI50: > 100 µM (inactive)
COLO 205
  GI50: > 100 µM (inactive)
NCI-H460
  GI50: > 100 µM (inactive)
HCT-116
  GI50: > 100 µM (inactive)
MDA-MB-231
  GI50: > 100 µM (inactive)
PC-3
  GI50: > 100 µM (inactive)
SN12C
  GI50: > 100 µM (inactive)
OVCAR-5
  GI50: > 100 µM (inactive)
KM12
  GI50: > 100 µM (inactive)
Hs-578T
  GI50: > 100 µM (inactive)
LOX IMVI
  GI50: > 100 µM (inactive)
SW-620
  GI50: > 100 µM (inactive)
HCT-15
  GI50: > 100 µM
SNB-75
  GI50: > 100 µM (inactive)
BT-549
  GI50: > 100 µM (inactive)
Malme-3M
  GI50: > 100 µM (inactive)
A549
  GI50: > 100 µM (inactive)
UACC-257
  GI50: > 100 µM (inactive)
786-0
  GI50: > 100 µM (inactive)
CAKI-1
  GI50: > 100 µM (inactive)
NCI-H226
  GI50: > 100 µM (inactive)
ACHN
  GI50: > 100 µM (inactive)
SNB-19
  GI50: > 100 µM (inactive)
T47D
  GI50: > 100 µM (inactive)
CCRF-CEM
  GI50: > 100 µM (inactive)
MDA-MB-435
  GI50: > 100 µM (inactive)
OVCAR-8
  GI50: > 100 µM (inactive)
RPMI-8226
  GI50: > 100 µM (inactive)
MDA-N
  GI50: > 100 µM (inactive)
TK-10
  GI50: > 100 µM (inactive)
HCC 2998
  GI50: > 100 µM (inactive)
SK-MEL-2
  GI50: > 100 µM (inactive)
SF-268
  GI50: > 100 µM (inactive)
EKVX
  GI50: > 100 µM (inactive)
IGROV-1
  GI50: > 100 µM (inactive)
NCI-H23
  GI50: > 100 µM (inactive)
HOP-62
  GI50: > 100 µM (inactive)

## Cn1c2ccccc2c(=O)c2c(O)cc3c(c21)C=CC1(CCCCC1)O3
SF-295
  GI50: > 10 µM (inactive)
SK-MEL-5
  GI50: > 10 µM (inactive)
SK-OV-3
  GI50: > 10 µM (inactive)
A498
  GI50: > 10 µM (inactive)
OVCAR-3
  GI50: > 10 µM (inactive)
HT-29
  GI50: 3.85 µM (inactive)
RXF 393
  GI50: > 10 µM (inactive)
OVCAR-4
  GI50: > 10 µM (inactive)
UO-31
  GI50: > 10 µM (inactive)
NCI/ADR-RES
  GI50: > 10 µM (inactive)
U-251
  GI50: > 10 µM (inactive)
MCF7
  GI50: 9.1 µM (inactive)
UACC-62
  GI50: > 10 µM (inactive)
DU-145
  GI50: > 10 µM (inactive)
MOLT-4
  GI50: > 10 µM (inactive)
SK-MEL-28
  GI50: > 10 µM (inactive)
M14
  GI50: > 10 µM (inactive)
K562
  GI50: 4.5 µM (inactive)
COLO 205
  GI50: > 10 µM (inactive)
NCI-H460
  GI50: > 10 µM (inactive)
HCT-116
  GI50: > 10 µM (inactive)
MDA-MB-231
  GI50: > 10 µM (inactive)
PC-3
  GI50: > 10 µM (inactive)
SN12C
  GI50: > 10 µM (inactive)
OVCAR-5
  GI50: 7.18 µM (inactive)
KM12
  GI50: 1.62 µM (inactive)
Hs-578T
  GI50: 9.06 µM (inactive)
NCI-H522
  GI50: > 10 µM (inactive)
LOX IMVI
  GI50: > 10 µM (inactive)
SW-620
  GI50: > 10 µM (inactive)
HCT-15
  GI50: > 10 µM
SNB-75
  GI50: > 10 µM (inactive)
BT-549
  GI50: 2.08 µM (inactive)
Malme-3M
  GI50: > 10 µM (inactive)
A549
  GI50: > 10 µM (inactive)
UACC-257
  GI50: > 10 µM (inactive)
786-0
  GI50: 9.95 µM (inactive)
CAKI-1
  GI50: > 10 µM (inactive)
NCI-H226
  GI50: 5.89 µM (inactive)
ACHN
  GI50: > 10 µM (inactive)
SNB-19
  GI50: > 10 µM (inactive)
T47D
  GI50: > 10 µM (inactive)
HOP-92
  GI50: > 10 µM (inactive)
CCRF-CEM
  GI50: > 10 µM (inactive)
MDA-MB-435
  GI50: > 10 µM (inactive)
OVCAR-8
  GI50: > 10 µM (inactive)
RPMI-8226
  GI50: > 10 µM (inactive)
MDA-N
  GI50: > 10 µM (inactive)
TK-10
  GI50: > 10 µM (inactive)
HCC 2998
  GI50: > 10 µM (inactive)
SK-MEL-2
  GI50: > 10 µM (inactive)
SF-268
  GI50: > 10 µM (inactive)
EKVX
  GI50: 8.41 µM (inactive)
IGROV-1
  GI50: > 10 µM (inactive)
NCI-H23
  GI50: > 10 µM (inactive)
HOP-62
  GI50: > 10 µM (inactive)
SF-539
  GI50: > 10 µM (inactive)
